Measured values reported in ChEMBL document CHEMBL4359901, “Cyclic enaminone as new chemotype for selective cyclooxygenase-2 inhibitory, anti-inflammatory, and analgesic activities” (Eur J Med Chem, 2019).

Assays:
Rattus norvegicus [1] = test: Antiinflammatory activity in Sprague-Dawley rat model of carrageenan-induced thermal hyperalgesia assessed as paw withdrawal latency pressure at 50 mg/kg, po administered 1 hr prior to carrageenan challenge and measured after 2 hrs by Von-frey test (reference value: 146.47 +/- 5.12 g); type: functional
Rattus norvegicus [2] = test: Antiinflammatory activity in Sprague-Dawley rat model of carrageenan-induced thermal hyperalgesia assessed as paw withdrawal latency pressure at 30 mg/kg, po administered 1 hr prior to carrageenan challenge and measured after 5 hrs by Von-frey test (reference value: 169.58 +/- 4.26 g); type: functional
[3] = Cardiotoxicity in Sprague-Dawley rat assessed as heart rate at 50 mg/kg; type: toxicity, organism-based; details: in vivo
Rattus norvegicus [4] = test: Antiinflammatory activity in Sprague-Dawley rat model of carrageenan-induced thermal hyperalgesia assessed as paw withdrawal latency pressure at 50 mg/kg, po administered 1 hr prior to carrageenan challenge and measured after 5 hrs by Von-frey test (reference value: 169.58 +/- 4.26 g); type: functional
Rattus norvegicus [5] = test: Antiinflammatory activity in Wistar albino rat assessed as reduction in carrageenan-induced paw volume at 12.5 mg/kg, ip measured after 2 hrs by plethysmometric method (reference value: 1.58 +/- 0.21 ml); type: functional
Rattus norvegicus [6] = test: Antiinflammatory activity in Sprague-Dawley rat model of carrageenan-induced thermal hyperalgesia assessed as paw withdrawal latency time at 30 mg/kg, po administered 1 hr prior to carrageenan challenge and measured after 5 hrs by planter test (reference value: 7.5 +/- 0.74 sec); type: functional
Rattus norvegicus [7] = test: Antiinflammatory activity in Sprague-Dawley rat model of carrageenan-induced thermal hyperalgesia assessed as paw withdrawal latency pressure at 30 mg/kg, po administered 1 hr prior to carrageenan challenge and measured after 4 hrs by Randall-Selitto test (reference value: 200.08 +/- 10.22 g); type: functional
Rattus norvegicus [8] = test: Antiinflammatory activity in Sprague-Dawley rat model of carrageenan-induced thermal hyperalgesia assessed as paw withdrawal latency time at 50 mg/kg, po administered 1 hr prior to carrageenan challenge and measured after 3 hrs by planter test (reference value: 4.13 +/- 0.45 sec); type: functional
Rattus norvegicus [9] = test: Antiinflammatory activity in Sprague-Dawley rat model of carrageenan-induced thermal hyperalgesia assessed as paw withdrawal latency pressure at 50 mg/kg, po administered 1 hr prior to carrageenan challenge and measured after 2 hrs by Randall-Selitto test (reference value: 231.13 +/- 3.15 g); type: functional
Rattus norvegicus [10] = test: Antiinflammatory activity in Wistar albino rat assessed as reduction in carrageenan-induced paw volume at 12.5 mg/kg, ip measured after 3 hrs by plethysmometric method (reference value: 1.75 +/- 0.33 ml); type: functional
[11] = Ulcerogenicity in Sprague-Dawley rat assessed as formation of lesions at 30 mg/kg, po after 1 hr by microscopic analysis; type: toxicity, organism-based; details: in vivo
Rattus norvegicus [12] = test: Antiinflammatory activity in Sprague-Dawley rat model of carrageenan-induced thermal hyperalgesia assessed as paw withdrawal latency time at 30 mg/kg, po administered 1 hr prior to carrageenan challenge and measured after 4 hrs by planter test (reference value: 5.47 +/- 0.84 sec); type: functional
[13] = Antioxidant activity assessed as DPPH radical scavenging activity at 60 uM/ml incubated for 20 mins by spectrophotometric method relative to control; type: functional
[14] = Antioxidant activity assessed as DPPH radical scavenging activity at 40 uM/ml incubated for 20 mins by spectrophotometric method relative to control; type: functional
Rattus norvegicus [15] = test: Antiinflammatory activity in Wistar albino rat assessed as reduction in carrageenan-induced paw edema at 25 mg/kg, ip measured after 2 hrs by plethysmometric method (reference value: 1.58 +/- 0.21 ml); type: functional
Rattus norvegicus [16] = test: Antiinflammatory activity in Sprague-Dawley rat model of carrageenan-induced thermal hyperalgesia assessed as paw withdrawal latency time at 50 mg/kg, po administered 1 hr prior to carrageenan challenge and measured after 2 hrs by planter test (reference value: 6.17 +/- 0.58 sec); type: functional
[17] = Antioxidant activity assessed as DPPH radical scavenging activity at 20 uM/ml incubated for 20 mins by spectrophotometric method relative to control; type: functional
Rattus norvegicus [18] = test: Analgesic activity in Wistar albino rat assessed as reaction time at 25 mg/kg, ip measured after 180 mins for 15 secs by hot plate method (reference value: 3.87 +/- 0.38 sec); type: functional
Rattus norvegicus [19] = test: Antiinflammatory activity in Sprague-Dawley rat model of carrageenan-induced thermal hyperalgesia assessed as paw withdrawal latency time at 50 mg/kg, po administered 1 hr prior to carrageenan challenge and measured after 5 hrs by planter test (reference value: 7.5 +/- 0.74 sec); type: functional
Rattus norvegicus [20] = test: Antiinflammatory activity in Sprague-Dawley rat model of carrageenan-induced thermal hyperalgesia assessed as paw withdrawal latency pressure at 50 mg/kg, po administered 1 hr prior to carrageenan challenge and measured after 3 hrs by Von-frey test (reference value: 31.65 +/- 3.33 g); type: functional
Rattus norvegicus [21] = test: Antiinflammatory activity in Wistar albino rat assessed as reduction in carrageenan-induced paw edema at 25 mg/kg, ip measured after 3 hrs by plethysmometric method (reference value: 1.75 +/- 0.33 ml); type: functional
Rattus norvegicus [22] = test: Antiinflammatory activity in Sprague-Dawley rat model of carrageenan-induced thermal hyperalgesia assessed as paw withdrawal latency pressure at 30 mg/kg, po administered 1 hr prior to carrageenan challenge and measured after 2 hrs by Randall-Selitto test (reference value: 231.13 +/- 3.15 g); type: functional
[23] = Cardiotoxicity in Sprague-Dawley rat assessed as DBP rate at 50 mg/kg; type: toxicity, organism-based; details: in vivo
Rattus norvegicus [24] = test: Antiinflammatory activity in Wistar albino rat assessed as reduction in carrageenan-induced paw volume at 12.5 mg/kg, ip measured after 1 hr by plethysmometric method (reference value: 1.43 +/- 0.19 ml); type: functional
Rattus norvegicus [25] = test: Antiinflammatory activity in Sprague-Dawley rat model of carrageenan-induced thermal hyperalgesia assessed as paw withdrawal latency time at 50 mg/kg, po administered 1 hr prior to carrageenan challenge and measured after 4 hrs by planter test (reference value: 5.47 +/- 0.84 sec); type: functional
[26] = Antioxidant activity assessed as DPPH radical scavenging activity at 80 uM/ml incubated for 20 mins by spectrophotometric method relative to control; type: functional
Rattus norvegicus [27] = test: Antiinflammatory activity in Sprague-Dawley rat model of carrageenan-induced thermal hyperalgesia assessed as paw withdrawal latency time at 30 mg/kg, po administered 1 hr prior to carrageenan challenge and measured after 2 hrs by planter test (reference value: 6.17 +/- 0.58 sec); type: functional
Rattus norvegicus [28] = test: Analgesic activity in Wistar albino rat assessed as reaction time at 12.5 mg/kg, ip measured after 120 mins for 15 secs by hot plate method (reference value: 4.32 +/- 0.52 sec); type: functional
Rattus norvegicus [29] = test: Antiinflammatory activity in Sprague-Dawley rat model of carrageenan-induced thermal hyperalgesia assessed as paw withdrawal latency pressure at 30 mg/kg, po administered 1 hr prior to carrageenan challenge and measured after 5 hrs by Randall-Selitto test (reference value: 224.08 +/- 7.12 g); type: functional
Rattus norvegicus [30] = test: Analgesic activity in Wistar albino rat assessed as reaction time at 12.5 mg/kg, ip measured after 30 mins for 15 secs by hot plate method (reference value: 4.21 +/- 0.41 sec); type: functional

## CC(=O)N(C1=CC(=O)CCC1)c1ccc(Cl)cc1
Rattus norvegicus [1]
  Activity: 168.03 g
Rattus norvegicus [2]
  Activity: 161.8 g
[3]
  Activity: Non-Toxic
Rattus norvegicus [4]
  Activity: 168.65 g
Rattus norvegicus [5]
  Activity: 1.26 mL
Rattus norvegicus [6]
  Time: 6.37 s
Rattus norvegicus [7]
  Activity: 258.94 g
Rattus norvegicus [8]
  Time: 8.38 s
Rattus norvegicus [9]
  Activity: 268.96 g
Rattus norvegicus [10]
  Activity: 1.18 mL
[11]
  Activity: Non-Toxic
Rattus norvegicus [12]
  Time: 6.67 s
[13]
  Activity: 65.3%
[14]
  Activity: 48%
Rattus norvegicus [15]
  Activity: 1.2 mL
Rattus norvegicus [16]
  Time: 9.67 s
[17]
  Activity: 22.4%
Rattus norvegicus [18]
  Time: 11.88 s
Rattus norvegicus [19]
  Time: 9.3 s
Rattus norvegicus [20]
  Activity: 166.86 g
Rattus norvegicus [21]
  Activity: 1.11 mL
Rattus norvegicus [22]
  Activity: 262.26 g
[23]
  Activity: Non-Toxic
Rattus norvegicus [24]
  Activity: 1.3 mL
Rattus norvegicus [25]
  Time: 9.58 s
[26]
  Activity: 83.9%
Rattus norvegicus [27]
  Time: 8.01 s
Rattus norvegicus [28]
  Time: 10.15 s
Rattus norvegicus [29]
  Activity: 264.48 g
Rattus norvegicus [30]
  Time: 6.16 s
